# Source: patent publication US5112820A, “Anti-glaucoma compositions containing 2- and 3-aminomethyl-6-arylcarbonyl- or 6-phenylthio-2,3-dihydropyrrolo-(1,2,3-de)-1,4-benzoxazines and method of use thereof” (Sterling Drug Inc., priority 1990, dated 1992)
# Like-named read-outs stand apart in the source and are kept apart here.
# What was measured:
# [1] = system: mouse vas deferens; assay: mouse vas deferens adrenergic transmission test (MVD); assay type: cell-based; conditions: for IC50: inhibition of contractions in the MVD preparation in vitro, active at IC50 of 5.0 μM or less; for inhibition at 10 µM: read-out: MVD percent inhibition at a given dose level
# Text: Med. Assoc. 217, 1392 (1971)]. […] Opth. 7, 921-923 (1975); Green and Pederson, Effect of delta-9 Tetrahydrocannabinol on Aqueous Dynamics and Ciliary Body Permeability in the Rabbit Eye., Exptl. Eye Research 15, 499-507 (1973); Colasanti, Craig and Allara, Intraocular Pressure, Ocular Toxicity and Neurotoxicity after Administration of Cannabinol or Cannabigerol, Exptl. Eye Research 39, 252-259 (1984)]. Similarly, synthetic cannabinoids also reduce intraocular pressure [Green, Symunds, Oliver and Elijah, Intraocular Pressure Following Systemic Administration of Cannabinoids., Curr. […] Cannabinoid receptor binding sites can be defined as those to which radio-labelled 4-(1,1-dimethyl-heptyl)-2,3'-dihydroxy-6'alpha-(3-hydroxypropyl)-1',2',3',4',-5',6'-hexahydrobiphenyl (CP 55940) binds in a specific and saturable manner and the binding sites are heterogeneously distributed in the brain [Devane, Dysarz, Johnson, Melvin and Howlett, Determination and Characterization of a Cannabinoid Receptor in Rat Brain, Molecular Pharm 34, 605-613 (1988)]. Natural and synthetic cannabinoids and representative examples of the compounds of the present invention bind to CP 55940 binding sites. […] It is believed that agonist activity at the cannabinoid receptor mediates the anti-glaucoma actions of cannabinoids, and that agonist activity at this receptor correlates with ocular pressure lowering actions in man.
# The compounds are identified by the Example or the Preparation number above where their preparations are described.
# [2] = target: T1, cannabinoid receptor (CP 55940 binding sites) (Rattus norvegicus, UniProt P20272); assay: CP55940 binding assay (CP)
# T1 construct: from tissue; host or cells: rat brain membranes (inferred from the cited Devane et al. 1988)
# [3] = smoking (marijuana, man); topical application or systemic injection (delta-9 tetrahydrocannabinol; cited studies in man and rabbit); cited from earlier work
# T1 sequence (P20272 whole entry): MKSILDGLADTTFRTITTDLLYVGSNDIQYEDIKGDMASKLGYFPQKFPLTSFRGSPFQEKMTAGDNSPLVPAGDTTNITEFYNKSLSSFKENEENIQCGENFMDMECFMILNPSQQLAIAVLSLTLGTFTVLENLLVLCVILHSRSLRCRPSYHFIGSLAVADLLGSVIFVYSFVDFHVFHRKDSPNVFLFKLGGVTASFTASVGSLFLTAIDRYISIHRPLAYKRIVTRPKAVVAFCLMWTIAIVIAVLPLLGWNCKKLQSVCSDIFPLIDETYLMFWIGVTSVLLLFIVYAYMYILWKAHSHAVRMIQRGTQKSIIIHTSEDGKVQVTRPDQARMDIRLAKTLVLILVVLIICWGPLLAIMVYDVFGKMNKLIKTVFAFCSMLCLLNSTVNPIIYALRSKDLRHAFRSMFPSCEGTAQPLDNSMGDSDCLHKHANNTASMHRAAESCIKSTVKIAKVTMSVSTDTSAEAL
compound,measurement,setting,value
"Cc1c(C(=O)c2cccc3ccccc23)c2cccc3c2n1C(CN1CCOCC1)CO3 (single isomer, unassigned; (+)) [Ex. 2B (d), (+)-3-(4-morpholinylmethyl)-5-methyl-6-(1-naphthylcarbonyl)-2,3-dihydropyrrolo[1,2,3-de]-1,4-benzoxazine methanesulfonate]",IC50,[1]; methanesulfonate,43 ± 0.1 nM
"COc1ccc(C(=O)c2c(C)n3c4c(cccc24)OCC3CN2CCOCC2)cc1 (single isomer, unassigned; (+)) [Ex. 2H (d)]",IC50,"[2]; CP55940 binding, read-out: CP IC50",199 nM
"Cc1c(Sc2ccccc2)c2cccc3c2n1C(CN1CCOCC1)CO3 (single isomer, unassigned; (+)) [Prep. 4B (d)]",IC50,[1],70 nM
"Cc1c(C(=O)c2cccc3c(Br)cc(Br)cc23)c2cccc3c2n1C(CN1CCOCC1)CO3 (single isomer, unassigned; (-)) [Ex. 1E, (-)-3-(4-morpholinylmethyl)-5-methyl-6-(5,7-dibromonaphthylcarbonyl)-2,3-dihydropyrrolo[1,2,3-de]-1,4-benzoxazine methanesulfonate]",IC50,[1]; methanesulfonate,2620 ± 1700 nM
"Cc1c(C(=O)c2cccc3ccccc23)c2cccc3c2n1C(CN1CCOCC1)CO3 (single isomer, unassigned; (-)) [Ex. 2B (1), (-)-3-(4-morpholinylmethyl)-5-methyl-6-(1-naphthylcarbonyl)-2,3-dihydropyrrolo[1,2,3-de]-1,4-benzoxazine methanesulfonate]",inhibition at 10 µM,[1]; Mus musculus,37%
"COc1ccc(C(=O)c2c(C)n3c4c(cccc24)OCC3CN2CCOCC2)cc1 (single isomer, unassigned; (-)) [Ex. 2H (1)]",inhibition at 10 µM,[1]; Mus musculus,44%
"Cc1c(Sc2ccccc2)c2cccc3c2n1C(CN1CCOCC1)CO3 (single isomer, unassigned; (-)) [Prep. 4B (1)]",IC50,[1],690 nM
CCc1c(C(=O)c2ccc(OC)cc2)c2cccc3c2n1C(CN1CCOCC1)CO3 (centres unmarked) [Ex. 2A],inhibition at 10 µM,[1]; Mus musculus,27%
"Cc1c(C(=O)c2cccc3ccccc23)c2cccc3c2n1CC(CN1CCOCC1)O3 (centres unmarked) [Ex. 2I, 2-(4-morpholinylmethyl)-5-methyl-6-(1-naphthylcarbonyl)2,3-dihydropyrrolo[1,2,3-de]-1,4-benzoxazine]",IC50,"[2]; CP IC50, CP55940 binding",~10 nM
"Cc1c(Sc2ccccc2)c2cccc3c2n1C(CN1CCOCC1)CO3 (centres unmarked) [Prep. 4A (d,1)]",IC50,[1]; Mus musculus,> 10000 nM
CCCCCc1cc(O)c2c(c1)OC(C)(C)[C@@H]1CCC(C)=C[C@@H]21 [delta-9 tetrahydrocannabinol],effect on intraocular pressure,[3],reduces intraocular pressure
